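Where inhibition never reached the appropriate level, the endpoint shown equals the highest concentration tested. Otherwise, values were interpolated linearly from a five-concentration, 48-hour dose response in 96-well plates. GI50 is the concentration that inhibits growth by half.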 Active and inactive are the calls of the source. Rule as the data show it: active = GI50 up to about 1.1 µM and inactive = higher.
What was measured:
Experiment in all cases: NCI tumour cell line growth inhibition, 48 h
PC-3 = test system: PC-3
UACC-62 = test system: UACC-62
Hs-578T = test system: Hs-578T
DU-145 = test system: DU-145
KM12 = test system: KM12
HCT-15 = test system: HCT-15
MDA-MB-435 = test system: MDA-MB-435
NCI-H522 = test system: NCI-H522
SW-620 = test system: SW-620
786-0 = test system: 786-0
RXF 393 = test system: RXF 393
SK-MEL-28 = test system: SK-MEL-28
M14 = test system: M14
HL-60 = test system: HL-60
SF-295 = test system: SF-295
OVCAR-4 = test system: OVCAR-4
SF-268 = test system: SF-268
SF-539 = test system: SF-539

| Compound | GI50 (PC-3) | GI50 (UACC-62) | GI50 (Hs-578T) | GI50 (DU-145) | GI50 (KM12) | GI50 (HCT-15) | GI50 (MDA-MB-435) | GI50 (NCI-H522) | GI50 (SW-620) | GI50 (786-0) | GI50 (RXF 393) | GI50 (SK-MEL-28) | GI50 (M14) | GI50 (HL-60) | GI50 (SF-295) | GI50 (OVCAR-4) | GI50 (SF-268) | GI50 (SF-539) |
| --- | --- | --- | --- | --- | --- | --- | --- | --- | --- | --- | --- | --- | --- | --- | --- | --- | --- | --- |
| CN1N=C(c2ccncc2)OC1c1ccc(Cl)c(Cl)c1 (stereo not drawn) | > 100 µM (inactive) | > 100 µM (inactive) | > 100 µM (inactive) | > 100 µM (inactive) | > 100 µM (inactive) | > 100 µM | > 100 µM (inactive) | > 100 µM (inactive) | > 100 µM (inactive) | 83.6 µM (inactive) | 74.1 µM (inactive) | > 100 µM (inactive) | > 100 µM (inactive) | 69.8 µM (inactive) | > 100 µM (inactive) | > 100 µM (inactive) | > 100 µM (inactive) | > 100 µM (inactive) |
| COC1(OC)CCN(Cc2ccccc2)C1=O | 13.2 µM (inactive) | 10.9 µM (inactive) | > 100 µM (inactive) | 15.2 µM (inactive) | 17.4 µM (inactive) | 13.4 µM | 15.6 µM (inactive) | > 100 µM (inactive) | 2.86 µM (inactive) | 5.08 µM (inactive) | 12.3 µM (inactive) | 9.62 µM (inactive) | 10.4 µM (inactive) | 1.69 µM (inactive) | 23.4 µM (inactive) | 16 µM (inactive) | > 38.1 µM (inactive) | 14 µM (inactive) |
| CCOC(=O)C(NS(=O)(=O)c1ccccc1)(C(F)(F)F)P(=O)(OCC(C)C)OCC(C)C (stereo not drawn) | > 100 µM (inactive) | > 100 µM (inactive) | > 100 µM (inactive) | > 100 µM (inactive) | > 100 µM (inactive) | > 100 µM | > 100 µM (inactive) | > 100 µM (inactive) | > 100 µM (inactive) | > 100 µM (inactive) | > 100 µM (inactive) | > 100 µM (inactive) | > 100 µM (inactive) | > 100 µM (inactive) | > 100 µM (inactive) | > 100 µM (inactive) | > 100 µM (inactive) | > 100 µM (inactive) |
| CNc1ccc(C(=O)CC(O)CCC(C)C2OC(=O)CC(O)CC(=O)CC(O)CC(O)CC(O)CC(O)CC3(O)CC(O)C(C(=O)NCCN(C)C)C(CC(OC4OC(C)C(O)C(NC(=O)CN5CCN(C)CC5)C4O)\C=C/C=C\C=C/C=C/C=C/C=C\C=C/C2C)O3)cc1 (stereo not drawn) | > 100 µM (inactive) | 46.2 µM (inactive) | 1.91 µM (inactive) | 3.22 µM (inactive) | 2.08 µM (inactive) | 6.18 µM | 14.9 µM (inactive) | 2.65 µM (inactive) | 3.66 µM (inactive) | 12.9 µM (inactive) | > 100 µM (inactive) | 9.27 µM (inactive) | 30.8 µM (inactive) | 7.29 µM (inactive) | 25.2 µM (inactive) | 14 µM (inactive) | 6.64 µM (inactive) | 37.7 µM (inactive) |
| NC(=O)NOCC1NC(=O)NC1=O (stereo not drawn) | > 100 µM (inactive) | > 100 µM (inactive) | > 100 µM (inactive) | > 100 µM (inactive) | > 100 µM (inactive) | > 100 µM | > 100 µM (inactive) | > 100 µM (inactive) | > 100 µM (inactive) | > 100 µM (inactive) | > 100 µM (inactive) | > 100 µM (inactive) | > 100 µM (inactive) | 19.3 µM (inactive) | > 100 µM (inactive) | > 100 µM (inactive) | > 100 µM (inactive) | > 100 µM (inactive) |
| COc1cc(S(=O)(=O)Nc2nc(-c3ccc(N4C(=O)C(CC(=O)O)SC4c4ccccc4O)cc3)cs2)ccc1Cl (stereo not drawn) | 59.4 µM (inactive) | 72.9 µM (inactive) | > 100 µM (inactive) | > 100 µM (inactive) | 78.7 µM (inactive) | 47.5 µM | 87.5 µM (inactive) | 85.3 µM (inactive) | > 100 µM (inactive) | > 100 µM (inactive) | 61.2 µM (inactive) | > 100 µM (inactive) | > 100 µM (inactive) | 15.3 µM (inactive) | 51.2 µM (inactive) | 34.3 µM (inactive) | > 100 µM (inactive) | > 100 µM (inactive) |
| CC1=NN(c2ccccc2)C(=O)/C1=C\c1c(C)[nH]n(-c2ccccc2)c1=O | 77.4 µM (inactive) | > 100 µM (inactive) | > 100 µM (inactive) | > 100 µM (inactive) | > 100 µM (inactive) | > 100 µM | > 100 µM (inactive) | 53.7 µM (inactive) | 92.7 µM (inactive) | > 100 µM (inactive) | 35.1 µM (inactive) | > 100 µM (inactive) | > 100 µM (inactive) | > 100 µM (inactive) | > 100 µM (inactive) | > 100 µM (inactive) | > 100 µM (inactive) | > 100 µM (inactive) |
| O=C1OC(C2=CC(=O)c3ccccc3C2=O)C(Cl)=C1Cl (stereo not drawn) | 27.3 µM (inactive) | 17.4 µM (inactive) | 54.7 µM (inactive) | 39.7 µM (inactive) | 77.4 µM (inactive) | 20 µM | 35.6 µM (inactive) | 15.9 µM (inactive) | 35.2 µM (inactive) | 17.9 µM (inactive) | 25.2 µM (inactive) | 41 µM (inactive) | 39.3 µM (inactive) | 35.9 µM (inactive) | 86.5 µM (inactive) | – | 27.2 µM (inactive) | 27.4 µM (inactive) |
| COc1cc2c(cc1O)NC(=O)[C@@H]1C[C@@H](O)CN1C2=O | 43.8 µM (inactive) | > 100 µM (inactive) | 43.8 µM (inactive) | > 100 µM (inactive) | 53.6 µM (inactive) | 50.7 µM | 91.6 µM (inactive) | 33.8 µM (inactive) | 64.3 µM (inactive) | 52 µM (inactive) | > 100 µM (inactive) | > 100 µM (inactive) | 72.1 µM (inactive) | – | 27 µM (inactive) | > 100 µM (inactive) | 88.1 µM (inactive) | 43.8 µM (inactive) |
| Cc1ccc([N+](=O)[O-])cc1S(=O)(=O)Nc1ccc(C2=NN(C(=O)c3ccccc3)C(c3ccccc3)C2)cc1 (stereo not drawn) | 19.8 µM (inactive) | – | 22.1 µM (inactive) | 34 µM (inactive) | 26.2 µM (inactive) | 19.5 µM | 21.2 µM (inactive) | 11.5 µM (inactive) | 40.7 µM (inactive) | 17.4 µM (inactive) | 12.1 µM (inactive) | 41.6 µM (inactive) | 24.4 µM (inactive) | 21.5 µM (inactive) | 16.9 µM (inactive) | 18.2 µM (inactive) | 18.5 µM (inactive) | 16.6 µM (inactive) |
| O=c1c2cc([N+](=O)[O-])ccc2n2n1Cc1ccccc1C2 | 32.4 µM (inactive) | > 100 µM (inactive) | 43.4 µM (inactive) | > 100 µM (inactive) | > 100 µM (inactive) | > 100 µM | > 100 µM (inactive) | 64.6 µM (inactive) | > 100 µM (inactive) | > 100 µM (inactive) | > 100 µM (inactive) | > 100 µM (inactive) | – | > 100 µM (inactive) | > 100 µM (inactive) | > 100 µM (inactive) | > 100 µM (inactive) | > 100 µM (inactive) |
| COC(=O)Nc1nc2cc(Oc3ccc4nc(NC(=O)OC)[nH]c4c3)ccc2[nH]1 | 0.419 µM (active) | – | 0.975 µM (active) | 0.791 µM (active) | 0.376 µM (active) | 1.28 µM | 0.115 µM (active) | 1.34 µM (inactive) | 0.855 µM (active) | 0.435 µM (active) | 0.74 µM (active) | 0.713 µM (active) | 0.993 µM (active) | 0.608 µM (active) | 1.58 µM (inactive) | 1.77 µM (inactive) | 1.36 µM (inactive) | 0.381 µM (active) |
| C=CCC1CC(n2cc(C)c(=O)[nH]c2=O)OC1CO[Si](C)(C)C(C)(C)C (stereo not drawn) | 11.4 µM (inactive) | 17.2 µM (inactive) | 12.6 µM (inactive) | 13.5 µM (inactive) | 12 µM (inactive) | 15.3 µM | 13.4 µM (inactive) | 10.4 µM (inactive) | 16.1 µM (inactive) | 15.2 µM (inactive) | 4.06 µM (inactive) | 16.3 µM (inactive) | 18.6 µM (inactive) | – | 17.6 µM (inactive) | 12.1 µM (inactive) | 15.6 µM (inactive) | 13.8 µM (inactive) |
| O=c1cc(-c2ccc(O)cc2)n(C2CC2)c2ccccc12 | 9.44 µM (inactive) | 3.91 µM (inactive) | 5.41 µM (inactive) | 3.64 µM (inactive) | 3.45 µM (inactive) | 4.08 µM | 4.83 µM (inactive) | 3.18 µM (inactive) | 5.05 µM (inactive) | 4.06 µM (inactive) | 2.82 µM (inactive) | – | 6.89 µM (inactive) | 19.7 µM (inactive) | 3.46 µM (inactive) | – | 7.29 µM (inactive) | 5.38 µM (inactive) |
| CN(C)c1ccc(C2CC(c3ccc4ccccc4c3O)=NN2)cc1 (stereo not drawn) | 32 µM (inactive) | 36.2 µM (inactive) | 37.4 µM (inactive) | 50.4 µM (inactive) | 39.5 µM (inactive) | 44 µM | 30.4 µM (inactive) | 22.2 µM (inactive) | 32.9 µM (inactive) | 21.9 µM (inactive) | 36.1 µM (inactive) | 63.1 µM (inactive) | 31.8 µM (inactive) | – | 31.6 µM (inactive) | 94.4 µM (inactive) | 32.5 µM (inactive) | 24.5 µM (inactive) |
| c1ccc(Nc2nn3c(CCCCCCCCc4nnc5sc(Nc6ccccc6)nn45)nnc3s2)cc1 | 31 µM (inactive) | 34.6 µM (inactive) | 31.2 µM (inactive) | 47.8 µM (inactive) | 32.2 µM (inactive) | 36.5 µM | 25.4 µM (inactive) | 20.2 µM (inactive) | 29.2 µM (inactive) | 23.4 µM (inactive) | 41.6 µM (inactive) | 27.6 µM (inactive) | 16.5 µM (inactive) | – | 24.4 µM (inactive) | 21.8 µM (inactive) | 43 µM (inactive) | 56.5 µM (inactive) |

— ChEMBL document CHEMBL1201862, “PubChem BioAssay data set” (2004)
